Laboratory results: BindingDB's records for doi:10.7270/Q2NP26K8 (n/a, 1992)

Assays:
Assay in all cases: Inhibition of guinea pig heart Phosphodiesterase 3
[1] = molecular target: PDE3 (Cavia porcellus)
[2] = molecular target: PDE3 (Cavia porcellus); remark: listed apart in the source
[3] = molecular target: PDE3 (Cavia porcellus); remark: listed apart in the source

- IC50 [1]: 60 nM
- IC50 [2]: 60 nM
- IC50 [3]: 50 nM
SMILES: COc1ccc(C(=O)N2CCCc3cc(C4=NNC(=O)S[C@@H]4C)ccc32)cc1OC
